Read-outs that look alike come from different tables or passages of the source. Marks after values point to notes of the source that are not given here.
Tested on: Hydrochloric acid-Ethanol-Induced Ulcers
Test: Hydrochloric acid-Ethanol-Induced Ulcers
Type: in vivo, male Wister rats
Conditions: for inhibition in vivo at 20 mg/kg / inhibition in vivo at 10 mg/kg / inhibition in vivo at 5 mg/kg: Rattus norvegicus, intraduodenal, read-out: Inhibition ratio(%); for inhibition in vivo at 10 mg/kg: dose 10 mg/kg intraduodenally one hour before hydrochloric acid - 60% ethanol; for inhibition in vivo at 5 mg/kg: dose 5 mg/kg intraduodenally one hour before hydrochloric acid - 60% ethanol
Experimental: Experiments on Hydrochloric acid-Ethanol-Induced Ulcers, Aspirin-Induced Ulcers, Water-Immersion stress-Induced Ulcers, Shay's Ulcers and Serotonin-Induced Ulcers were carried out using male Wister rats weighing about 200g in groups of six. Experiments on Ischemia-Reperfusion -Induced Gastric Lesions were carried out using male SD rats weighing about 250g in groups of six. Other than for the tests on Ischemia-Reperfusion-Induced Gastric Lesions Models, the test compounds were prepared by mixing thoroughly with polyethyleneglycol and 0.5% sodium carboxymethyl cellulose solution and emulsifying vigorously. Activities against respective ulcer models were evaluated by an inhibiting ratio obtained by dividing the difference between the ulceration indexes of the non-administered group and the test compound group by the non-administered group.
To each rat which had been fasted for 24 hours was orally administered 0.5ml of a mixed solution of 150 mM hydrochloric acid - 60% ethanol per 100g of weight. Each rat was slaughtered after one hour, a length of ulcer formed at the fundus gland area of stomach was measured and ulceration index was calculated based on the length. The test compound was administered intraduodenally one hour or three hours before the administration of mixed solution of hydrochloric acid - 60% ethanol.

[1] = 3 h, Table 1, dose 20 mg/kg intraduodenally three hours before hydrochloric acid - 60% ethanol

Compound	inhibition in vivo at 20 mg/kg [1] [%]	further results
CO[C@H]1C[C@H](C)C(=O)CC(C)(C)C1OC(=O)c1ccccc1 (relative stereo) [AU123A, 2,4-trans-5-benzoyloxy-4-methoxy-2,6,6-trimethylcycloheptan-1-one]	34	
CC(=O)OC1C=C(C)C(=O)CC(C)(C)C1OC(C)=O (centres unmarked) [AU102, 4,5-diacetoxy-2,6,6-trimethyl-2-cyclohepten-1-one]	49	inhibition in vivo at 10 mg/kg (1 h, Table 2): 75%
COC12CC(C)(C)C(O1)C(O)CC2C (stereo not drawn) [AU105A, 2,4-trans-1-methoxy-2,6,6-trimethyl-8-oxabicyclo [3.2.1] octan-4-ol]		Inhibition ratio(%) (Table 1, dose 20 mg/kg intraduodenally three hours before hydrochloric acid - 60% ethanol, 20 mg/kg): 44* %
COC12CC(C)(C)C(O1)C(OC(C)=O)CC2C (stereo not drawn) [AU108A, 2,4-trans-1-methoxy-4-acetoxy-2,6,6-trimethyl-8-oxabicyclo [3.2.1] octane]	55	inhibition in vivo at 10 mg/kg (1 h, Table 2): 75%
COC1CC(C)(C)C(OC(C)=O)C(OC(C)=O)C=C1C (centres unmarked) [AU112, 4,5-diacetoxy-1-methoxy-2,6,6-trimethyl-2-cycloheptene]	45	
COC1CC(C)(C)C(OC)C(OC)C=C1C (centres unmarked) [AU113, 1,4,5-trimethoxy-2,6,6-trimethyl-2-cycloheptene]	39	
COC1CC(C)(C)C(OC(=O)c2ccccc2)C(O)C=C1C (centres unmarked) [AU115, 5-benzoyloxy-1-methoxy-2,6,6-trimethyl-2-cyclohepten-4-ol]	83	
COC1C=C(C)C(=O)CC(C)(C)C1OC(=O)c1ccccc1 (centres unmarked) [AU121, 5-benzoyloxy-4-methoxy-2,6,6-trimethyl-2-cyclohepten-1-one]	50	
COC1CC(C)C(=O)CC(C)(C)C1OC(=O)c1ccccc1 (stereo not drawn) [AU123B, 2,4-cis-5-benzoyloxy-4-methoxy-2,6,6-trimethyl cycloheptan-1-one]	25	
CC1=CC(O)C(OC(=O)c2ccccc2Cl)C(C)(C)CC1=O (centres unmarked) [AU127, 5-(2-chlorobenzoyloxy)-4-hydroxy-2,6,6-trimethyl-2-cyclohepten-1-one]	87	
CC1=CC(O)C(OC(=O)c2ccc(Cl)cc2)C(C)(C)CC1=O (centres unmarked) [AU128, 5-(4-chlorobenzoyloxy)-4-hydroxy-2,6,6-trimethyl-2-cyclohepten-1-one]	53	
COc1ccc(C(=O)OC2C=C(C)C(=O)CC(C)(C)C2O)cc1OC (centres unmarked) [AU133, 4-(3,4-dimethoxybenzoyloxy)-5-hydroxy-2,6,6-trimethyl-2-cyclohepten-1-one]	38	
CC(C)=CCOC1CC(C)(C)C(O)C(OC(=O)c2ccccc2)C=C1C (centres unmarked) [AU144, 4-benzoyloxy-1-(3-methyl-2-buten-1-yloxy)-2,6,6-trimethyl-2-cyclohepten-5-ol]	51	
COC12CC(C)(C)C(O1)C(O)C=C2C (centres unmarked) [AU152, 1-methoxy-2,6,6-trimethyl-8-oxabicyclo [3.2.1] oct-2-en-4-ol]		inhibition in vivo at 20 mg/kg (1 h, Table 2, dose 20 mg/kg intraduodenally one hour before hydrochloric acid - 60% ethanol): 87%
COC12CC(C)(C)C(O)C(C=C1C)O2 (centres unmarked) [AU153, 1-methoxy-3,3,7-trimethyl-8-oxabicyclo [3.2.1] oct-6-en-4-ol]		inhibition in vivo at 10 mg/kg (1 h, Table 2): 55%
COC1C=C(C)C2(OC)CC(C)(C)C1O2 (centres unmarked) [AU155, 1,4-dimethoxy-2,6,6-trimethyl-8-oxabicyclo [3. 2. 1] oct-2-ene]		inhibition in vivo at 5 mg/kg (1 h, Table 2): 93%; inhibition in vivo at 10 mg/kg (1 h, Table 2): 96%
CC1=CC(OCc2ccccc2)C(O)C(C)(C)CC1=O (centres unmarked) [AU156, 4-benzyloxy-5-hydroxy-2,6,6-trimethyl-2-cyclohepten-1-one]		inhibition in vivo at 10 mg/kg (1 h, Table 2): 97%
COC12CC(C)(C)C(O1)C(OCc1ccccc1)C=C2C (centres unmarked) [AU157, 1-methoxy-4-benzyloxy-2,6,6-trimethyl-8-oxabicyclo [3.2.1] oct-2-ene]		inhibition in vivo at 5 mg/kg (1 h, Table 2): 64%
COC12CC(C)(C)C(O1)C(OC(C)=O)C=C2C (centres unmarked) [AU158, 4-acetoxy-1-methoxy-2,6,6-trimethyl-8-oxabicyclo [3.2.1] oct-2-ene]		inhibition in vivo at 5 mg/kg (1 h, Table 2): 33%
COC12CC(C)(C)C(OC(C)=O)C(C=C1C)O2 (centres unmarked) [AU159, 4-acetoxy-1-methoxy-3,3,7-trimethyl-8-oxabicyclo [3.2.1] oct-6-ene]		inhibition in vivo at 5 mg/kg (1 h, Table 2): 94%; inhibition in vivo at 10 mg/kg (1 h, Table 2): 83%
COC12CC(C)(C)C(O1)C(=O)CC2C (centres unmarked) [AU163, 1-methoxy-2,6,6-trimethyl-8-oxabicyclo [3.2.1] octan-4-one]	32	
CC1=CC(=O)C2OC1(OC(=O)c1ccccc1)CC2(C)C (centres unmarked) [AU168, 1-benzoyloxy-2,6,6-trimethyl-8-oxabicyclo [3.2.1] oct-2-en-4-one]	46	

Compound	inhibition in vivo at 20 mg/kg [1] [%]	further results
CC1=CC(O)C(OC(=O)c2ccccc2)C(C)(C)CC1=O (centres unmarked) [AU183, 5-benzoyloxy-4-hydroxy-2,6,6-trimethyl-2-cyclohepten-1-one]	73	
COc1ccc(COC2CC(C)C(=O)CC(C)(C)C2OC(C)=O)cc1 (stereo not drawn) [AU185, 2,4-cis-5-acetoxy-4-(4-methoxybenzyloxy)-2,6,6-trimethylcycloheptan-1-one]	34	
COc1ccc(COC2CC(C)C(=O)CC(C)(C)C2OC(=O)c2ccccc2)cc1 (stereo not drawn) [AU187, 2,4-cis-5-benzoyloxy-4-(4-methoxybenzyloxy)-2,6,6-trimethylcycloheptan-1-one]	35	
CC(=O)OC1C=C(C)C(=O)CC(C)(C)C1OC(=O)c1ccccc1 (centres unmarked) [AU189, 4-acetoxy-5-benzoyloxy-2,6,6-trimethyl-2-cyclohepten-1-one]	63	
CC1CC(O)C(OC(=O)c2ccccc2)C(C)(C)CC1=O (stereo not drawn) [AU191, 2,4-cis-5-benzoyloxy-4-hydroxy-2,6,6-trimethyl cycloheptan-1-one]	53	
CC(=O)OC1CC(C)C(=O)CC(C)(C)C1OC(=O)c1ccccc1 (stereo not drawn) [AU192, 2,4-cis-4-acetoxy-5-benzoyloxy-2,6,6-trimethylcycloheptan-1-one]	49	
CC(=O)OC1C(OC(=O)c2ccccc2)C=C(C)C(=O)CC1(C)C (centres unmarked) [AU193, 5-acetoxy-4-benzoyloxy-2,6,6-trimethyl-2-cyclohepten-1-one]	60	
CC(=O)OC1C(OC(=O)c2ccccc2)CC(C)C(=O)CC1(C)C (stereo not drawn) [AU194, 2,4-cis-5-acetoxy-4-benzoyloxy-2,6,6-trimethylcycloheptan-1-one]	23	
COc1ccc(C(=O)OC2C=C(C)C(=O)CC(C)(C)C2O)cc1 (centres unmarked) [AU195, 5-hydroxy-4-(4-methoxybenzoyloxy)-2,6,6-trimethyl-2-cyclohepten-1-one]	40	
CC(=O)OC1C(OC(=O)c2ccc(N)cc2)C=C(C)C(=O)CC1(C)C (centres unmarked) [AU197, 5-acetoxy-4-(4-aminobenzoyloxy)-2,6,6-trimethyl-2-cyclohepten-1-one]	44	
CC(=O)OC1C(OC(=O)c2cccc(Cl)c2)CC(C)C(=O)CC1(C)C (stereo not drawn) [AU199, 2,4-cis-5-acetoxy-4-(3-chlorobenzoyloxy)-2,6,6-trimethylcycloheptan-1-one]	29	
CC1=CC(OC(=O)c2cccc([N+](=O)[O-])c2)C(O)C(C)(C)CC1=O (centres unmarked) [AU200, 5-hydroxy-4-(3-nitrobenzoyloxy)-2,6,6-trimethyl-2-cyclohepten-1-one]	50	
CC1=CC(OC(=O)C=Cc2ccccc2)C(O)C(C)(C)CC1=O (centres unmarked) [AU206, 4-cinnamoyloxy-5-hydroxy-2,6,6-trimethyl-2-cyclohepten-1-one]	72	
CC(=O)OC1C=C(C)C(=O)CC(C)(C)C1OC(=O)C=Cc1ccccc1 (centres unmarked) [AU207, 4-acetoxy-5-cinnamoyloxy-2,6,6-trimethyl-2-cyclohepten-1-one]	56	
CC(=O)OC1C(OC(=O)C=Cc2ccccc2)C=C(C)C(=O)CC1(C)C (centres unmarked) [AU208, 5-acetoxy-4-cinnamoyloxy-2,6,6-trimethyl-2-cyclohepten-1-one]	39	
CC1=CC(O)C(OC(=O)c2cccc(N)c2)C(C)(C)CC1=O (centres unmarked) [AU209, 5-(3-aminobenzoyloxy)-4-hydroxy-2,6,6-trimethyl-2-cyclohepten-1-one]	38	
CC1=CC(OC(=O)c2cccc(N)c2)C(O)C(C)(C)CC1=O (centres unmarked) [AU210, 4-(3-aminobenzoyloxy)-5-hydroxy-2,6,6-trimethyl-2-cyclohepten-1-one]	26	
CC1=CC(O)C(OC(=O)c2ccc([N+](=O)[O-])cc2)C(C)(C)CC1=O (centres unmarked) [AU211, 4-hydroxy-5-(4-nitrobenzoyloxy)-2,6,6-trimethyl-2-cyclohepten-1-one]	38	
CC1=CC(O)C(OC(=O)c2ccc(N)cc2)C(C)(C)CC1=O (centres unmarked) [AU216, 5-(4-aminobenzoyloxy)-4-hydroxy-2,6,6-trimethyl-2-cyclohepten-1-one]	23	
CC(=O)Oc1ccc(C(=O)OC2C=C(C)C(=O)CC(C)(C)C2O)cc1 (centres unmarked) [AU217, 4-(4-acetoxybenzoyloxy)-5-hydroxy-2,6,6-trimethyl-2-cyclohepten-1-one]	48	
COC1C=C(C)C(=O)CC(C)(C)C1OC(=O)c1ccccc1C(=O)O (centres unmarked) [AU218, 5-(2-carboxybenzoyloxy)-4-methoxy-2,6,6-trimethyl-2-cyclohepten-1-one]	34	
